Measured values taken from patent publication US6737383B1, “Herbicidal oxadiazolidines” (priority 1999, dated 2004).

Tests used:
surinam grass = test: Test B pre/postemergence surinam grass; format: in vivo, Brachiaria decumbens
Summary of the method: (§1)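 Response is a visual 0-to-10 score relative to untreated plants, where 0 means no effect and 10 means complete control, taken twelve to sixteen days after application. Treatments went onto soil at planting and onto foliage of 1- to 4-leaf plants, using a surfactant-containing non-phytotoxic solvent.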

soybean = test: Test B pre/postemergence soybean; format: in vivo, Glycine max
Summary of the method: as §1

bamyardgrass = test: Test B flood test barnyardgrass; format: in vivo, Echinochloa crus-galli
Summary of the method: (§2)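 Flood test on plants grown to the 2-leaf stage; treated plants kept in greenhouse twelve to sixteen days, then visually rated against controls on a 0 (no effect) to 10 (complete control) scale.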

bedstraw = test: Test B pre/postemergence bedstraw; format: in vivo, Galium aparine
Summary of the method: as §1

morningglory = test: Test B pre/postemergence morningglory; format: in vivo, Ipomoea hederacea
Summary of the method: as §1

pigweed = test: Test B pre/postemergence pigweed; format: in vivo, Amaranthus retroflexus
Summary of the method: as §1

wild oat = test: Test B pre/postemergence wild oat; format: in vivo, Avena fatua
Summary of the method: as §1

wheat = test: Test B pre/postemergence wheat; format: in vivo, Triticum aestivum
Summary of the method: as §1

cocklebur = test: Test B pre/postemergence cocklebur; format: in vivo, Xanthium strumarium
Summary of the method: as §1

rape = test: Test B pre/postemergence rape; format: in vivo, Brassica napus
Summary of the method: as §1

sugar beet = test: Test B pre/postemergence sugar beet; format: in vivo, Beta vulgaris
Summary of the method: as §1

blackgrass = test: Test B pre/postemergence blackgrass; format: in vivo, Alopecurus myosuroides
Summary of the method: as §1

purple nutsedge = test: Test B pre/postemergence purple nutsedge; format: in vivo, Cyperus rotundus
Summary of the method: as §1

giant foxtail = test: Test B pre/postemergence giant foxtail; format: in vivo, Setaria faberii
Summary of the method: as §1

duck salad = test: Test B flood test duck salad; format: in vivo, Heteranthera limosa
Summary of the method: as §2

smallflower flatsedge = test: Test B flood test smallflower flatsedge; format: in vivo, Cyperus difformis
Summary of the method: as §2

[1] = Postemergence, Rate 62 g/ha, scale 0 to 10, 0 is no effect, 10 is complete control
[2] = Postemergence, Rate 250 g/ha, scale 0 to 10, 0 no effect, 10 complete control
[3] = Preemergence, Rate 62 g/ha, scale 0 to 10 (0 no effect, 10 complete control)
[4] = Preemergence, Rate 125 g/ha, scale 0 to 10 (0 no effect, 10 complete control)
[5] = Preemergence, Rate 250 g/ha, scale of 0 to 10 where 0 is no effect and 10 is complete control
[6] = Preemergence, Rate 500 g/ha, scale 0 (no effect) to 10 (complete control)
[7] = Rate 125 g/ha, Postemergence, scale 0 to 10, 0 no effect, 10 complete control
[8] = Rate 500 g/ha, Postemergence, scale 0 to 10, 0 no effect, 10 complete control
[9] = Rate 125 g/ha, Postemergence section (flood test species), scale 0 to 10, 0 no effect, 10 complete control
[10] = Rate 500 g/ha, listed under Postemergence (flood test species), scale 0 to 10, 0 no effect, 10 complete control
[11] = flood test, listed under Postemergence, Rate 250 g/ha, scale 0 to 10, 0 no effect, 10 complete control

Structure (SMILES): COc1cccc(C)c1-n1c(=O)on(C(=O)N(c2ccc(F)cc2F)C(C)C)c1=O [Compound 74]
- B. signalgrass plant response rating (surinam grass; [1]): 0
- B. signalgrass plant response rating (surinam grass; [2]): 0
- B. signalgrass plant response rating (surinam grass; [3]): 0
- Plant response rating, B. signalgrass (surinam grass; [4]): 0
- Plant response rating, B. signalgrass (surinam grass; [5]): 0
- B. signalgrass plant response rating (surinam grass; [6]): 0
- B. signalgrass plant response rating (surinam grass; [7]): 0
- B. signalgrass plant response rating (surinam grass; Rate 500 g/ha, Postemergence, scale of 0 to 10 where 0 is no effect and 10 is complete control): 2
- Soybean plant response rating (soybean; [1]): 0
- Soybean plant response rating (soybean; [2]): 1
- Soybean plant response rating (soybean; [3]): 0
- Plant response rating, Soybean (soybean; [4]): 0
- Plant response rating, Soybean (soybean; [5]): 0
- Soybean plant response rating (soybean; [6]): 0
- Soybean plant response rating (soybean; [8]): 1
- Barnyardgrass plant response rating (bamyardgrass; [1]): 0
- Barnyardgrass plant response rating (bamyardgrass; [9]): 0
- Barnyardgrass plant response rating (bamyardgrass; [10]): 0
- Barnyardgrass plant response rating (bamyardgrass; [11]): 0
- Bedstraw plant response rating (bedstraw; [1]): 0
- Bedstraw plant response rating (bedstraw; [2]): 5
- Bedstraw plant response rating (bedstraw; [3]): 0
- Plant response rating, Bedstraw (bedstraw; [4]): 0
- Plant response rating, Bedstraw (bedstraw; [5]): 0
- Bedstraw plant response rating (bedstraw; [6]): 0
- Bedstraw plant response rating (bedstraw; [7]): 0
- Bedstraw plant response rating (bedstraw; [8]): 8
- Morningglory plant response rating (morningglory; [1]): 2
- Morningglory plant response rating (morningglory; [2]): 3
- Morningglory plant response rating (morningglory; [3]): 0
- Plant response rating, Morningglory (morningglory; [4]): 0
- Plant response rating, Morningglory (morningglory; [5]): 0
- Morningglory plant response rating (morningglory; [6]): 0
- Morningglory plant response rating (morningglory; [7]): 2
- Morningglory plant response rating (morningglory; [8]): 4
- Redroot pigweed plant response rating (pigweed; [1]): 0
- Redroot pigweed plant response rating (pigweed; [2]): 0
- Redroot pigweed plant response rating (pigweed; [3]): 0
- Plant response rating, Redroot pigweed (pigweed; [4]): 0
- Plant response rating, Redroot pigweed (pigweed; [5]): 0
- Redroot pigweed plant response rating (pigweed; [6]): 3
- Redroot pigweed plant response rating (pigweed; [7]): 0
- Redroot pigweed plant response rating (pigweed; [8]): 0
- Wild oats plant response rating (wild oat; [1]): 0
- Wild oats plant response rating (wild oat; [2]): 0
- Wild oats plant response rating (wild oat; [3]): 0
- Plant response rating, Wild oats (wild oat; [4]): 0
- Plant response rating, Wild oats (wild oat; [5]): 0
- Wild oats plant response rating (wild oat; [6]): 0
- Wild oats plant response rating (wild oat; [7]): 0
- Wild oats plant response rating (wild oat; [8]): 2
- Wheat plant response rating (wheat; [1]): 0
- Wheat plant response rating (wheat; [2]): 0
- Wheat plant response rating (wheat; [3]): 0
- Plant response rating, Wheat (wheat; [4]): 0
- Plant response rating, Wheat (wheat; [5]): 0
- Wheat plant response rating (wheat; [6]): 0
- Wheat plant response rating (wheat; [7]): 0
- Wheat plant response rating (wheat; [8]): 3
- Cocklebur plant response rating (cocklebur; [1]): 0
- Cocklebur plant response rating (cocklebur; [2]): 0
- Cocklebur plant response rating (cocklebur; [3]): 0
- Plant response rating, Cocklebur (cocklebur; [4]): 0
- Plant response rating, Cocklebur (cocklebur; [5]): 0
- Cocklebur plant response rating (cocklebur; [6]): 0
- Cocklebur plant response rating (cocklebur; [7]): 0
- Cocklebur plant response rating (cocklebur; [8]): 4
- Rape plant response rating (rape; [1]): 0
- Rape plant response rating (rape; [2]): 0
- Rape plant response rating (rape; [3]): 0
- Plant response rating, Rape (rape; [4]): 0
- Plant response rating, Rape (rape; [5]): 0
- Rape plant response rating (rape; [6]): 5
- Rape plant response rating (rape; [7]): 0
- Rape plant response rating (rape; [8]): 2
- Sugarbeets plant response rating (sugar beet; [1]): 0
- Sugarbeets plant response rating (sugar beet; [2]): 0
- Sugarbeets plant response rating (sugar beet; [3]): 0
- Plant response rating, Sugarbeets (sugar beet; [4]): 0
- Plant response rating, Sugarbeets (sugar beet; [5]): 2
- Sugarbeets plant response rating (sugar beet; [6]): 4
- Sugarbeets plant response rating (sugar beet; [7]): 0
- Sugarbeets plant response rating (sugar beet; [8]): 0
- Blackgrass plant response rating (blackgrass; [1]): 0
- Blackgrass plant response rating (blackgrass; [2]): 0
- Blackgrass plant response rating (blackgrass; [3]): 0
- Plant response rating, Blackgrass (blackgrass; [4]): 0
- Plant response rating, Blackgrass (blackgrass; [5]): 0
- Blackgrass plant response rating (blackgrass; [6]): 0
- Blackgrass plant response rating (blackgrass; [7]): 0
- Blackgrass plant response rating (blackgrass; [8]): 3
- Nutsedge plant response rating (purple nutsedge; [1]): 0
- Nutsedge plant response rating (purple nutsedge; [2]): 0
- Nutsedge plant response rating (purple nutsedge; [3]): 0
- Plant response rating, Nutsedge (purple nutsedge; [4]): 0
- Plant response rating, Nutsedge (purple nutsedge; [5]): 0
- Nutsedge plant response rating (purple nutsedge; [6]): 0
- Nutsedge plant response rating (purple nutsedge; [7]): 0
- Nutsedge plant response rating (purple nutsedge; [8]): 0
- Giant foxtail plant response rating (giant foxtail; [1]): 0
- Giant foxtail plant response rating (giant foxtail; [3]): 3
- Plant response rating, Giant foxtail (giant foxtail; [4]): 7
- Plant response rating, Giant foxtail (giant foxtail; [5]): 8
- Giant foxtail plant response rating (giant foxtail; [6]): 10
- Giant foxtail plant response rating (giant foxtail; [7]): 0
- Giant foxtail plant response rating (giant foxtail; [8]): 2
- Ducksalad plant response rating (duck salad; [1]): 0
- Ducksalad plant response rating (duck salad; [9]): 0
- Ducksalad plant response rating (duck salad; [10]): 0
- Ducksalad plant response rating (duck salad; [11]): 0
- S. Flatsedge plant response rating (smallflower flatsedge; [1]): 0
- S. Flatsedge plant response rating (smallflower flatsedge; [9]): 0
- S. Flatsedge plant response rating (smallflower flatsedge; [10]): 0
- S. Flatsedge plant response rating (smallflower flatsedge; [11]): 0
